Results from patent US6608086B2, “Dihydropyridines and new uses thereof” (Synaptic Pharmaceutical Corporation, priority 1993, dated 2003).
Where two headings read alike, the source gives them in different places.

What was measured:
α2A receptor = target: T1, α2A receptor (Homo sapiens, UniProt P08913); test: Competition binding, [3H]rauwolscine, human α2A receptor
T1 construct: host or cells: LM(tk-) cells, line L-α2A
T1 sequence (P08913 1-465): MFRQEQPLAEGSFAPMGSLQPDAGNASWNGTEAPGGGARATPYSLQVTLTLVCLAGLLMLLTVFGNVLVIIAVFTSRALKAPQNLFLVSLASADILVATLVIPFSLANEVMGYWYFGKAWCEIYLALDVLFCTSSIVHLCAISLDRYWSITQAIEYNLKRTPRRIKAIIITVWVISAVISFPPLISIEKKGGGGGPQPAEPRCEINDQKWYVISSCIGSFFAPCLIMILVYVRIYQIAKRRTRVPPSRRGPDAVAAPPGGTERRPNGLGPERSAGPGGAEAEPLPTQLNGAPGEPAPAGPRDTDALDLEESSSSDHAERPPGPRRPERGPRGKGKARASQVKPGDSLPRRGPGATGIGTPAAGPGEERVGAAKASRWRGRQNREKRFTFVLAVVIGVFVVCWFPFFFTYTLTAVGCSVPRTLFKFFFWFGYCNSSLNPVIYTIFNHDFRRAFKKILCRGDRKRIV
Procedure, shortened: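 Using 25 mM glycylglycine buffer at pH 7.6 (room temperature), membranes from LM(tk−) cells carrying α2A, α2B or α2C were competed against 0.5 nM [3H]rauwolscine to equilibrium. Separation was by GF/B filtration; phentolamine (10 μM) set nonspecific binding.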

[1] = target: T2, α1B Human Adrenergic Receptor (Homo sapiens, UniProt P35368); test: Radioligand binding, [3H]prazosin, cloned human α1B adrenergic receptor; settings: cloned human receptor, LM(tk-) cell membranes, mean
T2 construct: The entire coding region of α1B (1563 bp); expressed in transfected cells
T2 sequence (P35368 1-520): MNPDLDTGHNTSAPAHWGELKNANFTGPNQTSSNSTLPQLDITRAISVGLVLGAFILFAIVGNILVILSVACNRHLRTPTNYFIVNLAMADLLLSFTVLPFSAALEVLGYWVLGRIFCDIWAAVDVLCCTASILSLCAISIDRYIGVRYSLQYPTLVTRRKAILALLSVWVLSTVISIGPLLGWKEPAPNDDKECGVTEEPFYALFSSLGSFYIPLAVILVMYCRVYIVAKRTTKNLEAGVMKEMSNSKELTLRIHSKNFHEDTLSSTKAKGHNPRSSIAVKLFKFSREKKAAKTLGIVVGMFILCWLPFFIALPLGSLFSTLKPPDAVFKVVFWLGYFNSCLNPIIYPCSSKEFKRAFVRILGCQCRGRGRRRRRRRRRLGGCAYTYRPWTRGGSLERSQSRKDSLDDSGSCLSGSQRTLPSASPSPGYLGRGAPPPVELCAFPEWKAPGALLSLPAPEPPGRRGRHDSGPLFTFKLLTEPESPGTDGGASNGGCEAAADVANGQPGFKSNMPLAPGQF
Procedure, shortened: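 Membranes from stably transfected LM(tk−) cells, resuspended in 50 mM Tris-HCl, 1 mM MgCl2, 0.1% ascorbic acid, pH 7.5, were incubated with 0.5 nM [3H]prazosin for 20 min at 37° C. Nonspecific binding defined with 10 μM phentolamine; bound ligand separated by GF/B filtration.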

[2] = target: T3, α1A Human Adrenergic Receptor (Homo sapiens, UniProt P25100); test: Radioligand binding, [3H]prazosin, cloned human α1A adrenergic receptor
T3 construct: The entire coding region of α1A (1719 bp); expressed in transfected cells
T3 sequence (P25100 1-572): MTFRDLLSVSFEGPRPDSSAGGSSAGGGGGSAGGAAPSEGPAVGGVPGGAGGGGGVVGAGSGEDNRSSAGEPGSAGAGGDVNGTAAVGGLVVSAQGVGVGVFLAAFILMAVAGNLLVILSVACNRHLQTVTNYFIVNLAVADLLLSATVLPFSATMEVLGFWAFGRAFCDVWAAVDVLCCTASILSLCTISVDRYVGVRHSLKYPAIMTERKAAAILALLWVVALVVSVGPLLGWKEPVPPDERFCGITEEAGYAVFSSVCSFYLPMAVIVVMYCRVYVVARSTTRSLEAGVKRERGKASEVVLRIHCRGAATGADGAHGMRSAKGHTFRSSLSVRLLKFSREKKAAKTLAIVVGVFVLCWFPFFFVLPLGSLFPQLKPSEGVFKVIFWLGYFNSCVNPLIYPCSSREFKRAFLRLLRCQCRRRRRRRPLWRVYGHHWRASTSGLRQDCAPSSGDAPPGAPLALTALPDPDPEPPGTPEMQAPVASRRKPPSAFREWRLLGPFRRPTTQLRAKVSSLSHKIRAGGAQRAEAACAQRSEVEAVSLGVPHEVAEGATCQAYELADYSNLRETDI
Procedure, shortened: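 Membranes from LM(tk−) cells transfected with cloned human α1A receptor, prepared in 50 mM Tris-HCl, 1 mM MgCl2, 0.1% ascorbic acid pH 7.5, were incubated with 0.5 nM [3H]prazosin at 37° C for 20 min. Nonspecific binding was defined with 10 μM phentolamine; bound ligand was separated by GF/B filtration.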

[3] = [3H]rauwolscine, human receptor, LM(tk-) cell lysates, mean, read-out: PKi alpha-2 2a (converted)
[4] = PKi alpha-1 1a, [3H]prazosin, cloned human receptor, LM(tk-) cell membranes, mean
[5] = read-out: PKi alpha-1 1b (converted)
[6] = [3H]prazosin, cloned human receptor, LM(tk-) cell membranes, mean, read-out: PKi alpha-1 1a (converted)

SMILES | Ki (α2A receptor; [3]) [nM] | Ki ([1]; PKi alpha-1 1b) [nM] | Ki [2, 4] [nM] | Ki [1, 5] [nM] | Ki [2, 6] [nM] | Ki (α2A receptor) [nM] | Ki ([2]; PKi alpha-1 1a) [nM]
CCC1=C(C(=O)NC)C(c2ccc([N+](=O)[O-])cc2)C(C(=O)NCCCN2CCC(c3ccccc3)(c3ccccc3)CC2)=C(CCCCOC)N1 (stereo not drawn) [Example 173, 6-Ethyl-1,4-dihydro-2-(4-methoxybutyl)-5-(N-methyl)carboxamido-4-(4-nitrophenyl)-3-{N-[3-(4,4-diphenylpiperidin-1-yl)propyl]}carboxamidopyridine] | 269 | 427 | 741 |  |  |  | 
CCC1=C(C(=O)NC)C(c2ccc([N+](=O)[O-])cc2)C(C(=O)NCCCN2CCC(C(=O)OC)(c3ccccc3)CC2)=C(CCCCOC)N1 (stereo not drawn) [Example 174, 6-Ethyl-1,4-dihydro-2-(4-methoxybutyl)-3-{N-[3-(4-methoxycarbonyl-4-phenylpiperidin-1-yl)propyl]}carboxamido-5-(N-methyl)carboxamido-4-(4-nitrophenyl)pyridine] | 2000 |  |  | 1910 | 3980 |  | 
CC(=O)C1=C(C)NC(CCCCN)=C(C(=O)NCCCN2CCC(c3ccccc3)(c3ccccc3)CC2)C1c1ccc([N+](=O)[O-])cc1 (stereo not drawn) [Example 176, 5-Acetyl-2-(4-aminobutyl)-1,4-dihydro-6-methyl-4-(4-nitrophenyl)-3-{N-[3-(4,4-diphenylpiperidin-1-yl)propyl]}carboxamidopyridine] | 977 | 158 | 309 |  |  |  | 
COC(=O)C1(c2ccccc2)CCN(CCCNC(=O)C2=C(CCCCN)NC(C)=C(C(N)=O)C2c2ccc([N+](=O)[O-])cc2)CC1 (stereo not drawn) [Example 177, 2-(4-Aminobutyl)-5-carboxamido-1,4-dihydro-3-{N-[3-(4-methoxycarbonyl-4-phenylpiperidin-1-yl)propyl]}carboxamido-6-methyl-4-(4-nitrophenyl)pyridine] |  |  |  | 759 |  | 1660 | 1410
COC(=O)C1(c2ccccc2)CCN(CCCNC(=O)C2=C(CCCCN)NC(C)=C(C(C)=O)C2c2ccc([N+](=O)[O-])cc2)CC1 (stereo not drawn) [Example 178, 5-Acetyl-2-(4-aminobutyl)-1,4-dihydro-3-{N-[3-(4-methoxycarbonyl-4-phenylpiperidin-1-yl)propyl]}carboxamido-6-methyl-4-(4-nitrophenyl) pyridine] | 912 |  |  | 417 | 832 |  | 
CCC1=C(C(=O)NC)C(c2ccc([N+](=O)[O-])cc2)C(C(=O)NCCCN2CCC(C(=O)OC)(c3ccccc3)CC2)=C(CC)N1 (stereo not drawn) [Example 179, 2,6-Diethyl-1,4-dihydro-3-{N-[3-(4-methoxycarbonyl-4-phenyl-piperidin-1-yl)propyl]}carboxamido-5-(N-methyl)carboxamido-4-(4-nitrophenyl)pyridine] |  |  |  | 1070 |  | 3310 | 4170
CCNC(=O)C1=C(CC)NC(CC)=C(C(=O)NCCCN2CCC(C(=O)OC)(c3ccccc3)CC2)C1c1ccc([N+](=O)[O-])cc1 (stereo not drawn) [Example 180, 2,6-Diethyl-1,4-dihydro-5-(N-ethyl)carboxamido-3-{N-[3-(4-methoxycarbonyl-4-phenylpiperidin-1-yl)propyl]}carboxamido-4-(4-nitrophenyl)pyridine] |  |  |  | 851 |  | 6920 | 3020
CCNC(=O)C1=C(CC)NC(CC)=C(C(=O)NCCCN2CCC(C(=O)OCC)(c3ccccc3)CC2)C1c1ccc([N+](=O)[O-])cc1 (stereo not drawn) [Example 182, 2,6-Diethyl-1,4-dihydro-3-{N-[3-(4-ethoxycarbonyl-4-phenylpiperidin-1-yl)propyl]}carboxamido-5-(N-ethyl)carboxamido-4(4-nitrophenyl)pyridine] |  |  |  | 1120 |  | 2190 | 3390
COC(=O)C1(c2ccccc2)CCN(CCCNC(=O)C2=C(COCCN=[N+]=[N-])NC(C)=C(C(N)=O)C2c2ccc([N+](=O)[O-])cc2)CC1 (stereo not drawn) [Example 183, 2-[(2-Azidoethoxy)methyl]-5-carboxamido-1,4-dihydro-3-{N-[3-(4-methoxycarbonyl-4-phenylpiperidin-1-yl)propyl]}carboxamido-6-methyl-4-(4-nitrophenyl)pyridine] | 1050 |  |  | 229 | 501 |  | 
